“And” between values parts separate entries of the source, which are not always exact repeats. Equal values may be shown once. Read-outs that look alike come from different tables or passages of the source.
What was measured:
[1] = system: SARS-CoV-2, isolate USA-WA1/2020; experiment: microbe, parasite or virus in culture; type: cell-based
[2] = biological target: T1, human CHRM2 (M2) (Homo sapiens, UniProt P08172); experiment: Eurofins CEREP panel, M2; type: binding; details: for inhibition at 10 µM: read-out: perc_inhibition (% inhibition of the binding of a ligand specific for each target)
T1 construct: purchased Eurofins Cerep (SafetyScreen44), recognised from the panel format
T1 sequence (P08172 1-466): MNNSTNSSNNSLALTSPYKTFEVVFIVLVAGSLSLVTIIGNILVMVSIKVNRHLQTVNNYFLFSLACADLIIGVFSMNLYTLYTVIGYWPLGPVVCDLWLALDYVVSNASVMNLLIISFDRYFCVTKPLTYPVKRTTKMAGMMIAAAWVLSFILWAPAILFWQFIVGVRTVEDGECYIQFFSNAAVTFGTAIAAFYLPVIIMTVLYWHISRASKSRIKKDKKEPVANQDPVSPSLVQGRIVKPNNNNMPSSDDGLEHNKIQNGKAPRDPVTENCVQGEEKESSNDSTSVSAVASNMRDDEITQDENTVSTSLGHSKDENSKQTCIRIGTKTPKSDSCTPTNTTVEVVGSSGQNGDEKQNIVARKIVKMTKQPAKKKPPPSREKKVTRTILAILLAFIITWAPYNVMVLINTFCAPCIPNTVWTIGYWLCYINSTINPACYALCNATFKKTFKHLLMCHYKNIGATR

[3] = biological target: T2, 5-HT2A (h) (Homo sapiens, UniProt P28223); experiment: In vitro CEREP profiling, 5-HT2A (h) (agonist radioligand); type: binding; details: test compound concentration 10 uM; for inhibition at 10 µM: read-out: perc_inhibition, % inhibition of the binding of a ligand specific for each target
T2 construct: purchased Eurofins Cerep (SafetyScreen44), recognised from the panel format
T2 sequence (P28223 whole entry): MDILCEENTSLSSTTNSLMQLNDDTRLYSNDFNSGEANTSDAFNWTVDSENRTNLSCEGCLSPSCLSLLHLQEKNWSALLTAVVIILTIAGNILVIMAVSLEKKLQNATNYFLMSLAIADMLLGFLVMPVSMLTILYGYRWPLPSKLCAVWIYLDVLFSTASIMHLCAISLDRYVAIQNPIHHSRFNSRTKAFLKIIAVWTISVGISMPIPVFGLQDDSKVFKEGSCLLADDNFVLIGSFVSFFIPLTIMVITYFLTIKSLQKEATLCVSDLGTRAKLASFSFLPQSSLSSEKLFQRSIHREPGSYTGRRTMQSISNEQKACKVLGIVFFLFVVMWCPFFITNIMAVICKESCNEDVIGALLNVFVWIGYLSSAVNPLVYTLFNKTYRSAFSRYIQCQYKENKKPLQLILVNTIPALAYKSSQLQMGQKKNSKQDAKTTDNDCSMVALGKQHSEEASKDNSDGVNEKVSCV
Description: (§1) Supplement media-1.zip/Safety_Panel_Profile.csv, table | column: perc_inhibition

[4] = biological target: T3, MAO-A (Rattus norvegicus, UniProt P21396); experiment: In vitro CEREP profiling, MAO-A (antagonist radioligand); type: binding; details: test compound concentration 10 uM; for inhibition at 10 µM: read-out: perc_inhibition (% inhibition of the binding of a ligand specific for each target)
T3 construct: purchased Eurofins Cerep (SafetyScreen44), recognised from the panel format
T3 sequence (P21396 1-526): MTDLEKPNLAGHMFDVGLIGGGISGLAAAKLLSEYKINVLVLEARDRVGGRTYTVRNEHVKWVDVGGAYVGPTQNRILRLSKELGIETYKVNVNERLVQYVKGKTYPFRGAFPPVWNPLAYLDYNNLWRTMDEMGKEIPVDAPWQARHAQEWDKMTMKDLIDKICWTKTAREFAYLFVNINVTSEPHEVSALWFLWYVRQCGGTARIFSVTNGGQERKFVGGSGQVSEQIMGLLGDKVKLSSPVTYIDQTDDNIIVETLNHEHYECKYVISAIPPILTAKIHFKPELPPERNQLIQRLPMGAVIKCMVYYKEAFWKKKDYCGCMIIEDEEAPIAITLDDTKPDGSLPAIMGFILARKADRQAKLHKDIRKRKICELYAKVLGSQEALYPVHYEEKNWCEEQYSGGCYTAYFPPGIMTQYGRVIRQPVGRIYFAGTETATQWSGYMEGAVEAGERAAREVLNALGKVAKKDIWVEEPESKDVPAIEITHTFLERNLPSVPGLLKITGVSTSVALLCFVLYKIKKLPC
Description: as §1

[5] = biological target: T4, V1a (h) (Homo sapiens, UniProt P37288); experiment: In vitro CEREP profiling, V1a (h) (agonist radioligand); type: binding; details: test compound concentration 10 uM; for inhibition at 10 µM: read-out: perc_inhibition, % inhibition of the binding of a ligand specific for each target
T4 construct: purchased Eurofins Cerep (SafetyScreen44), recognised from the panel format
T4 sequence (P37288 whole entry): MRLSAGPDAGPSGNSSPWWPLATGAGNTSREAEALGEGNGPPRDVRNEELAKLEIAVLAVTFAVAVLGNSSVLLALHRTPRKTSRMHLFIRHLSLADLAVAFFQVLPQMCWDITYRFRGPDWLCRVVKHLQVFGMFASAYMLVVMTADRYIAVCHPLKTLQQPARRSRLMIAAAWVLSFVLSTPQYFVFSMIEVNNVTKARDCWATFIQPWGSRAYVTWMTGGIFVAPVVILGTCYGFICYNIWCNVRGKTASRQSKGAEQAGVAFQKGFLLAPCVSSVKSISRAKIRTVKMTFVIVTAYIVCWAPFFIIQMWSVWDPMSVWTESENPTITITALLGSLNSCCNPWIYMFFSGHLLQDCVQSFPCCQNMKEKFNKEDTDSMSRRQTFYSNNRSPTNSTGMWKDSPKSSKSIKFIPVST
Description: as §1

[6] = biological target: T5, delta (DOP) (h) (Homo sapiens, UniProt P41143); experiment: In vitro CEREP profiling, delta (DOP) (h) (agonist radioligand); type: binding; details: test compound concentration 10 uM; for inhibition at 10 µM: read-out: perc_inhibition (% inhibition of the binding of a ligand specific for each target)
T5 construct: purchased Eurofins Cerep (SafetyScreen44), recognised from the panel format
T5 sequence (P41143 whole entry): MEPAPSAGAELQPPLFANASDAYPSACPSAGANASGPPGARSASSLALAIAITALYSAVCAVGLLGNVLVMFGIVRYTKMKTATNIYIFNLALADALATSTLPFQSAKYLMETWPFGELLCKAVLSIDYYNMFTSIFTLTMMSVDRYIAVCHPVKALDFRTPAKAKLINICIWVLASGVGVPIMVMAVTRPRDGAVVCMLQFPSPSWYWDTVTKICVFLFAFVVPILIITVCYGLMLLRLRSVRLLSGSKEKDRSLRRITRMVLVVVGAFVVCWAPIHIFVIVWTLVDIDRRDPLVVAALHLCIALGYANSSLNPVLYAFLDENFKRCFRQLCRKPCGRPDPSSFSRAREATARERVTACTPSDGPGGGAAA
Description: as §1

[7] = system: Ca2+ channel (L, dihydropyridine site); experiment: In vitro CEREP profiling, Ca2+ channel (L, dihydropyridine site) (antagonist radioligand); type: binding; details: test compound concentration 10 uM
Description: as §1

[8] = biological target: T6, Potassium Channel hERG (human) (Homo sapiens, UniProt Q12809); experiment: In vitro CEREP profiling, Potassium Channel hERG (human)- [3H] Dofetilide; type: binding; details: test compound concentration 10 uM
T6 construct: purchased Eurofins Cerep (SafetyScreen44), recognised from the panel format
T6 sequence (Q12809 whole entry): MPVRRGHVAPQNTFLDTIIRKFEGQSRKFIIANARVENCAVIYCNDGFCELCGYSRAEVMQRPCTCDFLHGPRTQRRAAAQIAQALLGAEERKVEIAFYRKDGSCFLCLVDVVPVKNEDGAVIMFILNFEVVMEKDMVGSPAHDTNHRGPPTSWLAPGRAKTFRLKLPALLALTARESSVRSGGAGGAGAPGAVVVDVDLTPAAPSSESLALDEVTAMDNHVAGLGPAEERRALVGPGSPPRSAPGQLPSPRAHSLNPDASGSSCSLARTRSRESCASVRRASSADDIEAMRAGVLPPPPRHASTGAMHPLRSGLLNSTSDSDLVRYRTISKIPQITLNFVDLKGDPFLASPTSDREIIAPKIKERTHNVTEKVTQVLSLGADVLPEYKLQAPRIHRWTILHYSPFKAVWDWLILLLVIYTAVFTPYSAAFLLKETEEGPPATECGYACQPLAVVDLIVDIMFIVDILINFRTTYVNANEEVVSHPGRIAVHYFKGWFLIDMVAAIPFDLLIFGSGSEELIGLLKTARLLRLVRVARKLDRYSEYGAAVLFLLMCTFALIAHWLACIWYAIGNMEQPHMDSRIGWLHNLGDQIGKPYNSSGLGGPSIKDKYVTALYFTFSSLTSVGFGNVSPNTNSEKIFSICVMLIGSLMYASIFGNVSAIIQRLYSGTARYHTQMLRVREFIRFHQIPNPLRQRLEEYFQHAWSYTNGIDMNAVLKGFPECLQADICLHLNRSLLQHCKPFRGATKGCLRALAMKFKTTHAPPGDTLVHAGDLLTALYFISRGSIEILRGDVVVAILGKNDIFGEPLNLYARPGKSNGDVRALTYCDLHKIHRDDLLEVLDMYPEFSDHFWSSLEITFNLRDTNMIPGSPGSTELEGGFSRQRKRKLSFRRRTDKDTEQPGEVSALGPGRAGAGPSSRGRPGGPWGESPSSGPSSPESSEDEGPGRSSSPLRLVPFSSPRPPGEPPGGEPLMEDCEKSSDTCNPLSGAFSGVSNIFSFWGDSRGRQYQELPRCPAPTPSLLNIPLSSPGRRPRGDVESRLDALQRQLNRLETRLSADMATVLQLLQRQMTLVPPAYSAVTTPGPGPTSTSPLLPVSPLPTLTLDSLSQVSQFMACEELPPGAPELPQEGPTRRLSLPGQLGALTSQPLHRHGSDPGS
Description: as §1

[9] = system: HeLa-ACE2 cells; details: for perc_max_measured: highest measured response of the dose series; for perc_min_measured: lowest measured response of the dose series
[10] = biological target: hERG (Homo sapiens, UniProt Q12809); experiment: In vitro hERG cardiotoxocity; details: for IC50: top test concentration 30 uM
Chain of hERG (Q12809 whole entry): as above
Description: Supplement media-1.zip/Cardiotoxicity.csv, table | column: ic50; perc_inhibition_top_conc

[11] = biological target: T7, ETA (h) (Homo sapiens, UniProt P25101); experiment: In vitro CEREP profiling, ETA (h) (agonist radioligand); type: binding; details: test compound 10 uM; for inhibition at 10 µM: read-out: perc_inhibition (% inhibition of the binding of a ligand specific for each target)
T7 construct: purchased Eurofins Cerep (SafetyScreen44), recognised from the panel format
T7 sequence (P25101 21-427): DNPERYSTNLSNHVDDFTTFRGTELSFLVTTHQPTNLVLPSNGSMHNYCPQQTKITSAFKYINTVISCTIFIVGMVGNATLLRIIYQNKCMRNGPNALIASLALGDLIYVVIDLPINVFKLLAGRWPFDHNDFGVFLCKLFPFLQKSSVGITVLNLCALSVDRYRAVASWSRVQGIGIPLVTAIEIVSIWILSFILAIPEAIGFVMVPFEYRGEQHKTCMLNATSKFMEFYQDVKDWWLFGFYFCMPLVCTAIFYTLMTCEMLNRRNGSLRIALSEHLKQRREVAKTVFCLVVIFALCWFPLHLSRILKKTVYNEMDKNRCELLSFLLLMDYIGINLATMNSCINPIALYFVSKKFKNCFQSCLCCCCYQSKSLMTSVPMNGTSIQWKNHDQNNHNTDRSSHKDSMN
Description: as §1

[12] = In vitro dog liver microsomal stability; type: in vitro ADME
Description: Supplement media-1.zip/Hepatic_Microsomal_Stability.csv, table | column: clint; t_half

[13] = HeLa-ACE2 SARS-CoV-2 antiviral effect without P-gp inhibitor, maximum measured response
[14] = HeLa-ACE2 SARS-CoV-2 antiviral effect without P-gp inhibitor, maximum measured response of dose series
[15] = HeLa-ACE2 SARS-CoV-2 antiviral effect without P-gp inhibitor, minimum measured response
[16] = HeLa-ACE2 SARS-CoV-2 antiviral effect without P-gp inhibitor, minimum measured response of dose series
[17] = M2 (h) (antagonist radioligand), test compound concentration 10 uM
[18] = Severe acute respiratory syndrome coronavirus 2, HeLa-ACE2
[19] = Severe acute respiratory syndrome coronavirus 2, HeLa-ACE2, read-out: HelaACE2 EC50
[20] = protocol HeLa-ACE2 cytotoxicity

Row | Compound | perc_max_measured [1, 13] [%] | perc_max_measured [1, 14] [%] | perc_min_measured [1, 15] [%] | perc_min_measured [1, 16] [%] | perc_inhibition (% inhibition of the binding of a ligand specific for each target) [7] [%] | cc10 ([9]; HeLa-ACE2 cytotoxicity) [µM] | perc_max_measured ([9]; HeLa-ACE2 cytotoxicity) | perc_min_measured ([9]; HeLa-ACE2 cytotoxicity) | IC50 [10] [µM] | t_half [12] [min] | EC50 [1, 18] [µM] | EC90 [1, 18] [µM] | EC50 [1, 19] [µM] | inhibition at 10 µM [2, 17] [%] | inhibition at 10 µM [3] [%] | inhibition at 10 µM [4] [%] | inhibition at 10 µM [5] [%] | inhibition at 10 µM [6] [%] | CC50 [9, 20] [µM] | cc10 [9, 20] [µM] | further results
1 | CC(C)[C@@H](Nc1ncnc2[nH]c(-c3cnn(C)c3C#N)cc12)c1ccc2c(n1)OCCO2 [ASAP-0010716] | 105.062 | 119.294 | 1.471 | 1.653 | 10 | > 20.0 | 137.444% and 97.941% | 84.699% and 78.982% | 10.1 | 29.8 |  |  |  |  |  |  |  |  |  |  | EC90 ([1]; HeLa-ACE2 SARS-CoV-2 antiviral effect without P-gp inhibitor, read-out: ec90): 7.55 µM and 9.22 µM; perc_inhibition (% inhibition of the binding of a ligand specific for each target) [2, 17]: 15%; perc_inhibition (% inhibition of the binding of a ligand specific for each target) [3]: 14%; perc_inhibition (% inhibition of the binding of a ligand specific for each target) [4]: 8%; perc_inhibition (% inhibition of the binding of a ligand specific for each target) [5]: 20%; perc_inhibition (% inhibition of the binding of a ligand specific for each target) [6]: 71%; perc_inhibition (% inhibition of the binding of a ligand specific for each target) [8]: 32%; CC50 ([9]; HeLa-ACE2 cytotoxicity): > 20 µM; perc_inhibition (% inhibition of the binding of a ligand specific for each target) [11]: 5%; clint [12]: 23.2 µL/min/mg
2 | CC(C)C(Nc1ncnc2[nH]c(C(=O)NC3CCN(C)C3)cc12)c1ccc2c(c1)S(=O)(=O)CCC2 (centres unmarked) [ASAP-0011198] | 109.068 | 108.327 | 93.8 | 87.557 | -6 | > 20.0 | 148.177% | 90.706% | > 30 | > 139.0 | > 20 | > 20 | > 20 | 52 | 1 | 3 | 6 | -16 | > 20 | > 20.0 | off-target activity at human CHRM2, in words ([2]; CEREP panel): moderate; perc_max_measured [9, 20]: 87.174%; perc_min_measured [9, 20]: 78.327%; perc_inhibition_top_conc ([10]; at top test concentration 30 uM, 30 µM): 23.0%; inhibition at 30 µM ([10]; human, at top test concentration 30 uM, read-out: perc_inhibition_top_conc): 18%; inhibition at 10 µM [11]: -6%; microsomal CLint ([12]; liver microsomes): < 5 µL/min/mg
3 | Cc1nn(C)cc1-c1cc2c(NC(c3ccc4c(c3)S(=O)(=O)CCC4)C(C)C)ncnc2[nH]1 (centres unmarked) [ASAP-0011446] | 111.189 | 120.747 | 56.402 | 82.491 | 12 | > 20.0 | 134.035% | 80.92% |  |  | > 20 | > 20 | > 20 | 5 | 51 | 5 | 14 | 16 | > 20 | > 20.0 | perc_max_measured [9, 20]: 92.951%; perc_min_measured [9, 20]: 82.728%; inhibition at 10 µM [11]: -4%

Reference: doi:10.1101/2024.08.19.608619, “Discovery of potent SARS-CoV-2 nsp3 macrodomain inhibitors uncovers lack of translation to cellular antiviral response” (bioRxiv, 2024)
